Results as given in patent US12329158B2, “Large-scale methods of uniformly coating packaging surfaces with a volatile antimicrobial to preserve food freshness” (AGROFRESH INC., priority 2013, dated 2025).
Converted amounts (≈) assume the structure as drawn.

Tests used:
P. expansum = assay: In vitro contact assay, amended agar (Example 24); assay type: cell-based; conditions: Penicillium expansum, 72 h; amended agar; 100% control; 3 days at 23 C; read-out: Contact MIC (mg/L) P. expansum
Experimental: (§1) Contact assay: 6-well (16.5 mL volume per well) microtiter plates are used for an in vitro inhibition assay. […] A 7.5-mL volume of the amended media is added to each well of the microtiter plate. […] The plates are sealed with a clear film and incubated for 3 days at 23° C. After incubation, plates are evaluate for percent growth relative to acetone only control.

B. cinerea = assay: In vitro contact assay, amended agar (Example 24); assay type: cell-based; conditions: Botrytis cinerea, 72 h; amended agar; 100% control; 3 days at 23 C; read-out: Contact MIC (mg/L) B. cinerea
Experimental: as §1

Botrytis cinerea [1] = assay: In vitro volatile assay (Example 24); assay type: cell-based; conditions: 72 h, headspace, 100% control, 3 days at 23 C, read-out: Volatile MIC (mg/L) B. cinerea
Experimental: (§2) Volatile assay: 12-well (6.5 mL volume per well) microtiter plates are used. A 3-mL volume of half strength PDA is added to each well. […] A Whatman #1 filter disk (Cat. No. 1001-0155) is placed, in duplicate, on the underside of a polyethylene PCR plate sealing film. […] The acetone is permitted to evaporate for 5 minutes. The headspace around the inoculum is then sealed inside the well by the film with the adhering disk containing the fungicide. Plates are inverted, placed over the treated disks, and sealed to prevent any of the chemical from flaking from the disk and falling onto the inoculated agar. […] Contact assay: 6-well (16.5 mL volume per well) microtiter plates are used for an in vitro inhibition assay. […] A 7.5-mL volume of the amended media is added to each well of the microtiter plate. […] The plates are sealed with a clear film and incubated for 3 days at 23° C. After incubation, plates are evaluate for percent growth relative to acetone only control.

Penicillium expansum [2] = assay: In vitro volatile assay (Example 24); assay type: cell-based; conditions: 72 h, headspace, 100% control, 3 days at 23 C, read-out: Volatile MIC (mg/L) P. expansum
Experimental: as §2

Alternaria alternata = assay: Volatile MIC assay (Example 9); assay type: cell-based; conditions: 72 h, headspace concentration, 3 days at 23 C, read-out: MIC (mg/L) ALTEAL
Experimental: (§3) A 3-mL volume of full-strength Potato Dextrose Agar (PDA) is added to each well. […] Plates are inoculated immediately prior to volatile fungicide treatment. A Whatman #1 filter disk (Cat. No. 1001-0155) is placed, in duplicate, on the underside of a polyethylene PCR plate sealing film. […] The acetone is permitted to evaporate for 5 minutes. The headspace around the inoculum is then sealed inside the well by the film with the adhering disk containing the fungicide by inverting the plates over the treated disks and sealing to prevent any of the chemical from flaking from the disk and falling onto the inoculated agar.

Botrytis cinerea [3] = assay: Volatile MIC assay (Example 9); assay type: cell-based; conditions: 72 h, headspace concentration, 3 days at 23 C, read-out: MIC (mg/L) BOTRCI
Experimental: as §3

Penicillium expansum [4] = assay: Volatile MIC assay (Example 9); assay type: cell-based; conditions: 72 h, headspace concentration, 3 days at 23 C, read-out: MIC (mg/L) PENIEX
Experimental: as §3

Glomerella cingulata = assay: Volatile MIC assay (Example 9); assay type: cell-based; conditions: Colletotrichum gloeosporioides, 72 h, headspace concentration, 3 days at 23 C, read-out: MIC (mg/L) GLOMCI
Experimental: as §3

Monilinia fructicola = assay: Volatile MIC assay (Example 9); assay type: cell-based; conditions: 72 h, headspace concentration, 3 days at 23 C, read-out: MIC (mg/L) MONIFC
Experimental: as §3

Penicillium expansum [5] = assay: Blue mold on apple and pear, contact assay (Example 25); assay type: in vivo; conditions: Contact (dip); rate not given; day 3 at 21 C after 5 days at 1 C
Experimental: (§4) A 250 mL solution of each concentration is used to dip two inoculated fruits, one minute per fruit, performed in triplicate per rate. The dipped fruits are then placed back into the clamshells and then into the SnapWare container and incubated at 1° C. for 5 days. […] Volatile application of Compound A results in excellent inhibition of browning and sporulation, whereas all other active ingredients result in no or little inhibition.

Penicillium expansum [6] = assay: Blue mold on apple and pear, volatile assay (Example 25); conditions: 50 mg/L, day 3 at 21 C after 5 days at 1 C
Experimental: Two apples, pears or oranges are placed in a clamshell, and three fresh wounds are made near the equatorial region of each fruit. Each fruit wound is then inoculated with 20 μL of 1×10^6 spores per mL of Penicillium expansum or digitatum suspension, respectively. The inoculum is allowed to dry for two hours prior to treatment application as a volatile or contact.
Volatile Assay: Clamshells are then placed at the bottom of a 2.55-L SnapWare airtight container (Model #109842). […] The solutions are pipetted into Whatman filter disks mounted to the inside lid of the container. The chambers are then incubated at 1° C. for 5 days, removed to 21° C., and evaluated on day 3 by determining the diameter (mm) of rot development (browning) or sporulation.

Penicillium digitatum [7] = assay: Green mold on orange, volatile assay (Example 25); assay type: in vivo; conditions: 50 mg/L, day 3 at 21 C after 5 days at 1 C
Penicillium digitatum [8] = assay: Green mold on orange, contact assay (Example 25); assay type: in vivo; conditions: Contact (dip); rate not given; day 3 at 21 C after 5 days at 1 C
Experimental: as §4

Trichophyton rubrum [9] = assay: In vitro volatile assay (Example 26); assay type: cell-based; conditions: 5 days at 28 C, 100% control
Experimental: (§5) Volatile assay: 6-well (16.5 mL volume per well) microtiter plates are used in an in vitro inhibition assay for Compounds A and 31, and compared to other registered fungicides (5-fluorocytosine, Amphotericin B, aspofungin diacetate, Fluconazole and Itraconazole). A 7.5-mL volume of half strength PDA is added to each well. After drying, a mycelial plug (5 mm diameter) is aseptically obtained from actively growing cultures of Epidermophyton floccus, Trichophyton rubrum, or Trichophyton mentagrophytes and placed at the center of the plate with the mycelial side in contact with the agar. A Whatman #1 filter disk (Cat. No. 1001-325) is placed, in duplicate, on the underside of a polyethylene PCR plate sealing film. […] The headspace around the inoculum is then sealed inside the well by the film with the adhering disk containing the fungicide and incubated inverted for 5 days at 28° C.

Epidermophyton floccus [10] = assay: In vitro volatile assay (Example 26); assay type: cell-based; conditions: 5 days at 28 C, 100% control
Experimental: as §5

[11] = test system: Trichophyton mentagrophytes; assay: In vitro volatile assay (Example 26); assay type: cell-based; conditions: 5 days at 28 C, 100% control
Experimental: as §5

Trichophyton rubrum [12] = assay: In vitro contact assay (Example 26); assay type: cell-based; conditions: 5 days at 28 C, 100% control
Experimental: (§6) Half-strength Potato Dextrose Agar (PDA) is amended with a mixture of one of the test compounds in acetone or methanol to a final concentration of 50, 10, 2, 0.4 or 0.08 mg/L. A 3-mL volume of the amended media is added to each well of the microtiter plate. […] The plates are sealed with a clear film and incubated inverted for 5 days at 28° C.

Epidermophyton floccus [13] = assay: In vitro contact assay (Example 26); assay type: cell-based; conditions: 5 days at 28 C, 100% control
Experimental: as §6

[14] = test system: Trichophyton mentagrophytes; assay: In vitro contact assay (Example 26); assay type: cell-based; conditions: 5 days at 28 C, 100% control
Experimental: as §6

[15] = Trichophyton rubrum, 120 h, read-out: MIC (mg/L) Trichophyton rubrum
[16] = Epidermophyton, 120 h, read-out: MIC (mg/L) Epidermophyton floccus
[17] = Trichophyton mentagrophytes, 120 h, read-out: MIC (mg/L) Trichophyton mentagrophytes

Compound	Apple Browning (mm) (Penicillium expansum [5])	Apple Sporulation (mm) (Penicillium expansum [5])	Pear Browning (mm) (Penicillium expansum [5])	Pear Sporulation (mm) (Penicillium expansum [5])	Apple Browning (mm) (Penicillium expansum [6])	Apple Sporulation (mm) (Penicillium expansum [6])	Pear Browning (mm) (Penicillium expansum [6])	Pear Sporulation (mm) (Penicillium expansum [6])	Orange Sporulation (mm) (Penicillium digitatum [7])	Orange Sporulation (mm) (Penicillium digitatum [8])	also measured
COB1OCc2ccccc21 [Compound 6]											MIC (P. expansum): 2 mg/L (≈ 13.5 µM); MIC (B. cinerea): 2 mg/L (≈ 13.5 µM); MIC (Botrytis cinerea [1]): 4.5 mg/L (≈ 30.4 µM); MIC (Penicillium expansum [2]): 17.9 mg/L (≈ 121 µM); MIC (Alternaria alternata): 4.5 mg/L (≈ 30.4 µM); MIC (Botrytis cinerea [3]): 2.2 mg/L (≈ 14.9 µM); MIC (Penicillium expansum [4]): 17.9 mg/L (≈ 121 µM); MIC (Glomerella cingulata): 17.9 mg/L (≈ 121 µM); MIC (Monilinia fructicola): 8.9 mg/L (≈ 60.1 µM)
O=C(Nc1ccccc1-c1ccc(Cl)cc1)c1cccnc1Cl [Boscalid]	7.0	0.8	8.6	2.3	10.3	2.4	14.3	3.6	30.3	>50	
N#Cc1c[nH]cc1-c1cccc2c1OC(F)(F)O2 [Fludioxonil]	2.9	0.0	3.3	0.0	11.2	3.1	12.8	2.8	40.8	8.3	
c1ccc2[nH]c(-c3cscn3)nc2c1 [Thiabendazole]	8.2	1.9	9.1	5.4	8.4	2.0	12.9	3.0	>50	0.0	
C=CCOC(Cn1ccnc1)c1ccc(Cl)cc1Cl (stereo not shown) [Imazalil]	6.9	0.9	7.9	1.0	11.1	3.0	14.3	3.4	41.4	0.0	
Caspofungin diacetate											MIC (mg/L) Trichophyton rubrum (Trichophyton rubrum [9]): >50 mg/L; MIC (mg/L) Epidermophyton floccus (Epidermophyton floccus [10]): >50 mg/L; MIC (mg/L) Trichophyton mentagrophytes [11]: >50 mg/L; MIC (mg/L) Trichophyton rubrum (Trichophyton rubrum [12]): 10.0 mg/L; MIC (mg/L) Epidermophyton floccus (Epidermophyton floccus [13]): 2.0 mg/L; MIC (mg/L) Trichophyton mentagrophytes [14]: 50.0 mg/L
C[C@@H]1[C@H](O)[C@@H](C)/C=C/C=C/C=C/C=C/C=C/C=C/C=C/[C@H](O[C@@H]2O[C@H](C)[C@@H](O)[C@H](N)[C@@H]2O)C[C@@H]2O[C@](O)(C[C@@H](O)C[C@@H](O)[C@H](O)CC[C@@H](O)C[C@@H](O)CC(=O)O[C@H]1C)C[C@H](O)[C@H]2C(=O)O [Amphotericin B]											MIC (mg/L) Trichophyton rubrum (Trichophyton rubrum [9]): >50 mg/L; MIC (mg/L) Epidermophyton floccus (Epidermophyton floccus [10]): >50 mg/L; MIC (mg/L) Trichophyton mentagrophytes [11]: >50 mg/L; MIC (mg/L) Trichophyton rubrum (Trichophyton rubrum [12]): >50 mg/L; MIC (mg/L) Epidermophyton floccus (Epidermophyton floccus [13]): 50.0 mg/L (≈ 54.1 µM); MIC (mg/L) Trichophyton mentagrophytes [14]: >50 mg/L
CCC(C)n1ncn(-c2ccc(N3CCN(c4ccc(OCC5COC(Cn6cncn6)(c6ccc(Cl)cc6Cl)O5)cc4)CC3)cc2)c1=O (stereo not shown) [Itraconazole]											MIC (Trichophyton rubrum [9]; [15]): > 50 mg/L; MIC (Epidermophyton floccus [10]; [16]): > 50 mg/L; MIC [11, 17]: > 50 mg/L; MIC (Trichophyton rubrum [12]; [15]): > 50 mg/L; MIC (Epidermophyton floccus [13]; [16]): > 50 mg/L; MIC [14, 17]: > 50 mg/L
